In patent publication US20260042731A1, “(2,4-DICHLOROPHENOXY)ACETIC ACID ANALOGS” (CORTEVA AGRISCIENCE LLC, priority 2022, published 2026):
Read-outs that look alike come from different tables or passages of the source.

Legend:
Assay type in all cases: in vivo
[1] = system: Amaranthus rudis (AMATA), tall water hemp; experiment: Postemergence herbicide evaluation, growth of Amaranthus rudis (AMATA); conditions: Amaranthus tuberculatus, post-emergence, read-out: Ave. AMATA
[2] = system: Chenopodium album (CHEAL), common lambsquarters; experiment: Postemergence herbicide evaluation, growth of Chenopodium album (CHEAL); conditions: Chenopodium album, post-emergence, read-out: Ave. CHEAL
[3] = system: weeds ABUTH, AMATA, AMBEL, CHEAL, ERICA; experiment: Postemergence herbicide evaluation, overall average % weed control across ABUTH, AMATA, AMBEL, CHEAL and ERICA; conditions: post-emergence, read-out: Overall Ave % Weed Control
[4] = system: Abutilon theophrasti (ABUTH), velvetleaf; experiment: Postemergence herbicide evaluation, growth of Abutilon theophrasti (ABUTH); conditions: Abutilon theophrasti, post-emergence, read-out: AVE. ABUTH
[5] = system: Ambrosia artemisiifolia (AMBEL), common ragweed; experiment: Postemergence herbicide evaluation, growth of Ambrosia artemisiifolia (AMBEL); conditions: Ambrosia artemisiifolia, post-emergence, read-out: AVE. AMBEL

Compound `O=C(COc1ccc(Cl)cc1Cl)OCCOCCOCCOCCOC(=O)COc1ccc(Cl)cc1Cl` [Compound B14] has a pest or weed control at 280 g/ha ([1]; 168 h) of 72.5%, a pest or weed control at 560 g/ha ([1]; 168 h) of 90% and a pest or weed control at 280 g/ha ([1]; 336 h) of 90%. For the same compound, the pest or weed control at 560 g/ha ([1]; 336 h) was 96%, the pest or weed control at 280 g/ha ([1]; 504 h) was 70% and the pest or weed control at 560 g/ha ([1]; 504 h) was 92.5%. For the same compound, the pest or weed control at 280 g/ha ([2]; 168 h) was 75%, the pest or weed control at 560 g/ha ([2]; 168 h) was 77.5% and the pest or weed control at 280 g/ha ([2]; 336 h) was 94%. The pest or weed control at 560 g/ha ([2]; 336 h) was 98%, the pest or weed control at 280 g/ha ([2]; 504 h) was 90% and the pest or weed control at 560 g/ha ([2]; 504 h) was 99%. The pest or weed control at 280 g/ha ([3]; 168 h) was 75%, the pest or weed control at 560 g/ha ([3]; 168 h) was 82.5% and the pest or weed control at 280 g/ha ([3]; 336 h) was 87.3%. The pest or weed control at 560 g/ha ([3]; 336 h) was 94.2%, the pest or weed control at 280 g/ha ([3]; 504 h) was 90.2% and the pest or weed control at 560 g/ha ([3]; 504 h) was 97.6%. It also gave a pest or weed control at 280 g/ha ([4]; 168 h) of 60%, a pest or weed control at 560 g/ha ([4]; 168 h) of 70% and a pest or weed control at 280 g/ha ([4]; 336 h) of 77.5%. The pest or weed control at 560 g/ha ([4]; 336 h) was 87.5%, the pest or weed control at 280 g/ha ([4]; 504 h) was 92% and the pest or weed control at 560 g/ha ([4]; 504 h) was 97.5%. The pest or weed control at 280 g/ha ([5]; 168 h) was 82.5%, the pest or weed control at 560 g/ha ([5]; 168 h) was 87.5% and the pest or weed control at 280 g/ha ([5]; 336 h) was 75%. The pest or weed control at 560 g/ha ([5]; 336 h) was 89.5%, the pest or weed control at 280 g/ha ([5]; 504 h) was 100% and the pest or weed control at 560 g/ha ([5]; 504 h) was 100%.
